pEC50: −log10 of the molar value.

This is an account of results in patent US20250145594A1, “MODULATORS OF THE INTEGRATED STRESS PATHWAY” (Calico Life Sciences LLC, priority 2020, published 2025).

In the assay the test system is ATF4 luciferase reporter in HEK293T cells. Briefly: ATF4-Luc assay (in vitro model of VWMD). Conditions: Homo sapiens, HEK-293T, 7 h, HEK293T cells carrying the ATF4 luciferase reporter, 1 μg/mL tunicamycin, One Glo luminescence. The assay is classed as cell-based, human. On the procedure: In order to test exemplary compounds of the invention in a cellular context, a stable VWMD cell line was first constructed. The ATF4 reporter was prepared by fusing the human full-length ATF4 5′-UTR (NCBI Accession No. BC022088.2) in front of the firefly luciferase (FLuc) coding sequence lacking the initiator methionine as described in Sidrauski et al (eLife 2013). The construct was used to produce recombinant retroviruses using standard methods and the resulting viral supernatant was used to transduce HEK293T cells, which were then subsequently selected with puromycin to generate a stable cell line.
HEK293T cells carrying the ATF4 luciferase reporter were plated on polylysine coated 384-well plates (Greiner Bio-one) at 30,000 cells per well. Cells were treated the next day with 1 μg/mL tunicamycin and 200 nM of a compound of Formula (I) for 7 hours. Luminescence was measured using One Glo (Promega) as specified by the manufacturer. Cells were maintained in DMEM with L-glutamine supplemented with 10% heat-inactivated FBS (Gibco) and Antibiotic-Antimycotic solution (Gibco).
Table 4 below summarizes the EC50 data obtained using the ATF4-Luc assay for exemplary compounds of the invention.
For orientation: In a reporter assay the amount or activity of a reporter protein is the signal.
Consider `O=C(COc1ccc(Cl)c(F)c1)NC12CCC(c3nnc([C@H]4C[C@@H](OC(F)(F)F)C4)o3)(CC1)CC2O` (stereo partly drawn) [Compound 124, 2-(4-chloro-3-fluorophenoxy)-N-(2-hydroxy-4-{5-[(1s,3s)-3-(trifluoromethoxy)cyclobutyl]-1,3,4-oxadiazol-2-yl}bicyclo[2.2.2]octan-1-yl)acetamide], for which the pEC50 is 7.30 to 8.00.
On to `O=C(N[C@H]1C[C@H]2CC[C@@H](C1)N2CCCOc1ccc(Cl)cc1)C1C[C@@H](O)c2cc(Cl)ccc2O1` (stereo partly drawn) [Compound 125, (2R,4R)-6-chloro-N-{(1R,3r,5S)-8-[3-(4-chlorophenoxy)propyl]-8-azabicyclo[3.2.1]octan-3-yl}-4-hydroxy-3,4-dihydro-2H-1-benzopyran-2-carboxamide], for which the pEC50 was 6.60 to 7.30.
To `O=C1CC(C(=O)NC23CC(c4nnc([C@H]5C[C@@H](OC(F)(F)F)C5)o4)(C2)C3)Oc2ccc(Cl)cc21` (stereo partly drawn) [Compound 151, 6-chloro-4-oxo-N-(3-{5-[(1s,3s)-3-(trifluoromethoxy)cyclobutyl]-1,3,4-oxadiazol-2-yl}bicyclo[1.1.1]pentan-1-yl)-3,4-dihydro-2H-1-benzopyran-2-carboxamide] belongs 6.60 to 7.30; to `O=C(CO[C@H]1C[C@@H](OC(F)(F)F)C1)NC12CC(NC(=O)[C@H]3C[C@@H](O)c4cc(Cl)ccc4O3)(C1)C2` [Compound 164, (2R,4R)-6-chloro-4-hydroxy-N-[3-(2-{[cis-3-(trifluoromethoxy)cyclobutyl]oxy}acetamido)bicyclo[1.1.1]pentan-1-yl]-3,4-dihydro-2H-1-benzopyran-2-carboxamide], over 8.00; to `O=C(CO[C@H]1C[C@@H](OC(F)(F)F)C1)NC12CC(NC(=O)[C@@H]3C[C@@H](O)c4cc(Cl)ccc4O3)(C1)C2` [Compound 208, (2S,4R)-6-chloro-4-hydroxy-N-[3-(2-{[cis-3-(trifluoromethoxy)cyclobutyl]oxy}acetamido)bicyclo[1.1.1]pentan-1-yl]-3,4-dihydro-2H-1-benzopyran-2-carboxamide], over 8.00.
The value for `O=C(NC12CC(n3cc(-c4ccc(OC(F)(F)F)c(F)c4)cn3)(C1)C2)[C@@H]1C[C@@H](O)c2cc(Cl)ccc2O1` [Compound 306, (2S,4R)-6-chloro-N-(3-{4-[3-fluoro-4-(trifluoromethoxy)phenyl]-1H-pyrazol-1-yl}bicyclo[1.1.1]pentan-1-yl)-4-hydroxy-3,4-dihydro-2H-1-benzopyran-2-carboxamide] was over 8.00; that for `O=C(NC12CC(n3cc(-c4ccc(OC(F)(F)F)cn4)cn3)(C1)C2)[C@H]1C[C@@H](O)c2cc(Cl)ccc2O1` [Compound 308, (2R,4R)-6-chloro-4-hydroxy-N-(3-{4-[5-(trifluoromethoxy)pyridin-2-yl]-1H-pyrazol-1-yl}bicyclo[1.1.1]pentan-1-yl)-3,4-dihydro-2H-1-benzopyran-2-carboxamide] was over 8.00.
To `O=C(NC12CC(c3cn(-c4ccc(Cl)c(F)c4)nn3)(C1)C2)[C@H]1C[C@@H](O)c2cc(Cl)ccc2O1` [Compound 311, (2R,4R)-6-chloro-N-{3-[1-(4-chloro-3-fluorophenyl)-1H-1,2,3-triazol-4-yl]bicyclo[1.1.1]pentan-1-yl}-4-hydroxy-3,4-dihydro-2H-1-benzopyran-2-carboxamide] belongs over 8.00; to `O=C(NC12CC(n3cc(-c4ccc(OC(F)(F)F)c(F)c4)cn3)(C1)C2)[C@H]1C[C@@H](O)c2cc(Cl)ccc2O1` [Compound 312, (2R,4R)-6-chloro-N-(3-{4-[3-fluoro-4-(trifluoromethoxy)phenyl]-1H-pyrazol-1-yl}bicyclo[1.1.1]pentan-1-yl)-4-hydroxy-3,4-dihydro-2H-1-benzopyran-2-carboxamide], over 8.00.
Consider `O=C(NC12CC(n3ccc([C@H]4C[C@@H](OC(F)(F)F)C4)n3)(C1)C2)[C@H]1C[C@@H](O)c2cc(Cl)ccc2O1` [Compound 314, (2R,4R)-6-chloro-4-hydroxy-N-(3-{3-[cis-3-(trifluoromethoxy)cyclobutyl]-1H-pyrazol-1-yl}bicyclo[1.1.1]pentan-1-yl)-3,4-dihydro-2H-1-benzopyran-2-carboxamide], for which the pEC50 is 6.60 to 7.30.
Regarding `O=C(NC12CC(c3cn([C@H]4C[C@@H](OC(F)(F)F)C4)nn3)(C1)C2)[C@H]1C[C@@H](O)c2cc(Cl)ccc2O1` [Compound 315, (2R,4R)-6-chloro-4-hydroxy-N-(3-{1-[cis-3-(trifluoromethoxy)cyclobutyl]-1H-1,2,3-triazol-4-yl}bicyclo[1.1.1]pentan-1-yl)-3,4-dihydro-2H-1-benzopyran-2-carboxamide], the negative logarithm of the EC50 (pEC50) is 7.30 to 8.00.
For the compound `O=C(NC12CC(c3cnn([C@H]4C[C@@H](OC(F)(F)F)C4)c3)(C1)C2)[C@H]1C[C@@H](O)c2cc(Cl)ccc2O1` [Compound 316, (2R,4R)-6-chloro-4-hydroxy-N-(3-{1-[cis-3-(trifluoromethoxy)cyclobutyl]-1H-pyrazol-4-yl}bicyclo[1.1.1]pentan-1-yl)-3,4-dihydro-2H-1-benzopyran-2-carboxamide], the pEC50 is over 8.00.
For the compound `O=C(NC12CC(n3cc(-c4ccc(C(F)(F)F)cn4)cn3)(C1)C2)[C@@H]1C[C@@H](O)c2cc(Cl)ccc2O1` [Compound 317, (2S,4R)-6-chloro-4-hydroxy-N-(3-{4-[5-(trifluoromethyl)pyridin-2-yl]-1H-pyrazol-1-yl}bicyclo[1.1.1]pentan-1-yl)-3,4-dihydro-2H-1-benzopyran-2-carboxamide], the negative logarithm of the EC50 (pEC50) is 7.30 to 8.00.
The value for `O=C(NC12CC(n3cc(N4CC[C@@H](OC(F)F)C4)cn3)(C1)C2)[C@H]1C[C@@H](O)c2cc(Cl)ccc2O1` [Compound 318, (2R,4R)-6-chloro-N-(3-{4-[(3R)-3-(difluoromethoxy)pyrrolidin-1-yl]-1H-pyrazol-1-yl}bicyclo[1.1.1]pentan-1-yl)-4-hydroxy-3,4-dihydro-2H-1-benzopyran-2-carboxamide] was 6.60 to 7.30; that for `COc1ncc(-c2cnn(C34CC(NC(=O)[C@@H]5C[C@H](O)c6cc(Cl)ccc6O5)(C3)C4)c2)cn1` [Compound 319, (2S,4S)-6-chloro-4-hydroxy-N-{3-[4-(2-methoxypyrimidin-5-yl)-1H-pyrazol-1-yl]bicyclo[1.1.1]pentan-1-yl}-3,4-dihydro-2H-1-benzopyran-2-carboxamide] was 6.30 to 6.60; that for `COc1ncc(-c2cnn(C34CC(NC(=O)[C@H]5C[C@@H](O)c6cc(Cl)ccc6O5)(C3)C4)c2)cn1` [Compound 320, (2R,4R)-6-chloro-4-hydroxy-N-{3-[4-(2-methoxypyrimidin-5-yl)-1H-pyrazol-1-yl]bicyclo[1.1.1]pentan-1-yl}-3,4-dihydro-2H-1-benzopyran-2-carboxamide] was 7.30 to 8.00.
To `O=C(NC12CC(n3cnc(C(=O)N4CC[C@@H](OC(F)(F)F)C4)c3)(C1)C2)[C@H]1C[C@@H](O)c2cc(Cl)ccc2O1` [Compound 321, (2R,4R)-6-chloro-4-hydroxy-N-(3-{4-[(3R)-3-(trifluoromethoxy)pyrrolidine-1-carbonyl]-1H-imidazol-1-yl}bicyclo[1.1.1]pentan-1-yl)-3,4-dihydro-2H-1-benzopyran-2-carboxamide] belongs 7.30 to 8.00.
To `O=C(N[C@@H]1CC[C@@H](C(=O)N2CC(c3ccc(C(F)(F)F)cc3)C2)OC1)[C@H]1C[C@@H](O)c2cc(Cl)ccc2O1` [Compound 322, (2R,4R)-6-chloro-4-hydroxy-N-[(3R,6S)-6-{3-[4-(trifluoromethyl)phenyl]azetidine-1-carbonyl}oxan-3-yl]-3,4-dihydro-2H-1-benzopyran-2-carboxamide] belongs over 8.00.

One may read the pEC50 as the negative decadic logarithm of the EC50, by convention in mol/L.
